Legend:
[1] = Oral bioavailability in Sprague-Dawley rat at 3 mg/kg by LC-MS/MS analysis; format: ADME, organism-based; settings: in vivo
[2] = Plasma clearance in Beagle dog at 3 mg/kg, iv by LC-MS/MS analysis; format: ADME, organism-based, Canis lupus familiaris; parameters: dose 3 mg/kg, route intravenous
Canis familiaris = test: AUC (infinity) in Beagle dog at 3 mg/kg, iv by LC-MS/MS analysis; format: ADME, organism-based, Canis lupus familiaris, Plasma; parameters: dose 3 mg/kg, route intravenous, time infinity; settings: in vivo
[3] = Terminal half life in Beagle dog at 3 mg/kg, iv by LC-MS/MS analysis; format: ADME, organism-based, Canis lupus familiaris; parameters: dose 3 mg/kg, route intravenous; settings: in vivo, read-out: beta t1/2 (converted)
[4] = Volume of distribution at steady state in Beagle dog at 3 mg/kg, iv by LC-MS/MS analysis; format: ADME, organism-based, Canis lupus familiaris; parameters: dose 3 mg/kg, route intravenous; settings: in vivo, read-out: Vdss
[5] = Tmax in Beagle dog at 3 mg/kg, po by LC-MS/MS analysis; format: ADME, organism-based, Canis lupus familiaris; parameters: dose 3 mg/kg, route oral; settings: in vivo
[6] = Oral bioavailability in Beagle dog at 3 mg/kg by LC-MS/MS analysis; format: ADME, organism-based, Canis lupus familiaris; settings: in vivo
Cynomolgus monkey = test: AUC (infinity) in cynomolgus monkey at 3 mg/kg, iv by LC-MS/MS analysis; format: ADME, organism-based, Macaca fascicularis, Plasma; parameters: time infinity, dose 3 mg/kg, route intravenous; settings: in vivo
[7] = Terminal half life in cynomolgus monkey at 3 mg/kg, iv by LC-MS/MS analysis; format: ADME, organism-based, Macaca fascicularis; parameters: dose 3 mg/kg, route intravenous; settings: in vivo, read-out: beta t1/2 (converted)
[8] = Volume of distribution at steady state in cynomolgus monkey at 3 mg/kg, iv by LC-MS/MS analysis; format: ADME, organism-based, Macaca fascicularis; parameters: dose 3 mg/kg, route intravenous; settings: in vivo, read-out: Vdss
[9] = AUC (infinity) in cynomolgus monkey at 3 mg/kg, po by LC-MS/MS analysis; format: ADME, organism-based, Macaca fascicularis; parameters: time infinity, dose 3 mg/kg, route oral; settings: plasma
[10] = Cmax in cynomolgus monkey at 3 mg/kg, po by LC-MS/MS analysis; format: ADME, organism-based, Macaca fascicularis; parameters: dose 3 mg/kg, route oral; settings: in vivo
[11] = Tmax in cynomolgus monkey at 3 mg/kg, po by LC-MS/MS analysis; format: ADME, organism-based, Macaca fascicularis; parameters: dose 3 mg/kg, route oral; settings: in vivo
[12] = Oral bioavailability in cynomolgus monkey at 3 mg/kg by LC-MS/MS analysis; format: ADME, organism-based, Macaca fascicularis; settings: in vivo
[13] = Fraction unbound in mouse brain; format: ADME, tissue-based
Brain [14] = test: Unbound AUC in mouse brain; format: ADME, tissue-based; settings: in vivo
Brain [15] = test: Unbound concentration in mouse brain at 3 mg/kg after 2 hrs; format: ADME, organism-based; parameters: dose 3 mg/kg; settings: in vivo
Plasma = test: Fraction unbound in mouse plasma at 3 mg/kg after 2 hrs; format: ADME, organism-based; parameters: dose 3 mg/kg; settings: in vivo
[16] = Ratio of unbound drug level in brain to plasma in mouse at 3 mg/kg after 2 hrs; format: ADME, organism-based; parameters: dose 3 mg/kg; settings: read-out: BPR
[17] = Ratio of drug level in brain to plasma in mouse at 3 mg/kg after 2 hrs; format: ADME, organism-based; parameters: dose 3 mg/kg; settings: read-out: BPR
[18] = Drug uptake in tumor of mouse xenografted with human COLO205 cells at 3 mg/kg after 2 hrs; format: ADME, organism-based, Neoplasm, COLO 205; parameters: dose 3 mg/kg; settings: read-out: Drug uptake
[19] = Ratio of drug level in tumor to plasma in mouse xenografted with human COLO205 cells at 3 mg/kg after 2 hrs; format: ADME, organism-based, COLO 205; parameters: dose 3 mg/kg
COLO 205 = test: Antitumor activity against human COLO205 cells expressing B-raf V600E mutant xenografted in po dosed mouse assessed as inhibition of tumor growth; format: functional, organism-based
[20] = target: Dual specificity mitogen-activated protein kinase kinase 1 (Homo sapiens, UniProt Q02750); test: Inhibition of MEK1 (unknown origin)
Dual specificity mitogen-activated protein kinase kinase 1, sequence (Q02750 whole entry): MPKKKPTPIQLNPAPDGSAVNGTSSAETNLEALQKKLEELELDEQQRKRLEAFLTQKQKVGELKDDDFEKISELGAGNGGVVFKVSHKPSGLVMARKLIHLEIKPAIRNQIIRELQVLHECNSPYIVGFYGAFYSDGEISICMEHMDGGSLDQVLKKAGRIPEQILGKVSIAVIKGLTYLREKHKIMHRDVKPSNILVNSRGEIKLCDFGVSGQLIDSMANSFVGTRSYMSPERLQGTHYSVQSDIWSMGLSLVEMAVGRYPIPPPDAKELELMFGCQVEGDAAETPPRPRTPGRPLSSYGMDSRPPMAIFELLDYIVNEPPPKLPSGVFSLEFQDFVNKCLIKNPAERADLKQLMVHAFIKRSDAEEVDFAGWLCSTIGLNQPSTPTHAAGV

[21] = Antiproliferative activity against human COLO205 cells expressing B-raf V600E mutant; format: functional, cell-based; settings: COLO 205
Mus musculus = test: AUC (infinity) in nu/nu mouse at 1 mg/kg, iv by LC-MS/MS analysis; format: ADME, organism-based, Plasma; parameters: time infinity, dose 1 mg/kg, route intravenous; settings: in vivo
[22] = Terminal half life in nu/nu mouse at 1 mg/kg, iv by LC-MS/MS analysis; format: ADME, organism-based; parameters: dose 1 mg/kg, route intravenous; settings: in vivo, read-out: beta t1/2 (converted)
[23] = Volume of distribution at steady state in nu/nu mouse at 1 mg/kg, iv by LC-MS/MS analysis; format: ADME, organism-based; parameters: dose 1 mg/kg, route intravenous; settings: in vivo, read-out: Vdss
[24] = AUC (infinity) in nu/nu mouse at 3 mg/kg, po by LC-MS/MS analysis; format: ADME, organism-based; parameters: time infinity, dose 3 mg/kg, route oral; settings: plasma
[25] = Cmax in nu/nu mouse at 3 mg/kg, po by LC-MS/MS analysis; format: ADME, organism-based; parameters: dose 3 mg/kg, route oral; settings: in vivo
[26] = Tmax in nu/nu mouse at 3 mg/kg, po by LC-MS/MS analysis; format: ADME, organism-based; parameters: dose 3 mg/kg, route oral; settings: in vivo
[27] = Oral bioavailability in nu/nu mouse at 3 mg/kg by LC-MS/MS analysis; format: ADME, organism-based; settings: in vivo
[28] = Plasma clearance in Sprague-Dawley rat at 3 mg/kg, iv by LC-MS/MS analysis; format: ADME, organism-based; parameters: dose 3 mg/kg, route intravenous
Rattus norvegicus = test: AUC (infinity) in Sprague-Dawley rat at 3 mg/kg, iv by LC-MS/MS analysis; format: ADME, organism-based, Plasma; parameters: dose 3 mg/kg, route intravenous, time infinity; settings: in vivo
[29] = Apparent permeability from apical to basolateral side of MDCK1 cells at 10 uM after 60 mins; format: ADME, cell-based, Canis lupus familiaris; settings: dog, MDCK
[30] = Apparent permeability from basolateral to apical side of MDCK1 cells at 10 uM after 60 mins; format: ADME, cell-based, Canis lupus familiaris; settings: dog, MDCK
[31] = Efflux ratio of permeability from […] side in MDCK1 cells at 10 uM after 60 mins; format: ADME, cell-based, Canis lupus familiaris; settings: dog, MDCK
MDR1 [32] = test: Apparent permeability from basolateral to apical side of MDCK1 cells expressing MDR1 at 25 uM after 2 hrs by LC-MS/MS analysis; format: ADME, cell-based, Canis lupus familiaris; settings: dog, MDCK-MDR1
MDR1 [33] = test: Efflux ratio of permeability from […] side in MDCK1 cells expressing MDR1 at 25 uM after 2 hrs by LC-MS/MS analysis; format: ADME, cell-based, Canis lupus familiaris; settings: dog, MDCK-MDR1
[34] = target: ATP-dependent translocase ABCB1 (Homo sapiens, UniProt P08183); test: Inhibition of MDR1 (unknown origin) at 25 uM; format: ADME
ATP-dependent translocase ABCB1, sequence (P08183 whole entry): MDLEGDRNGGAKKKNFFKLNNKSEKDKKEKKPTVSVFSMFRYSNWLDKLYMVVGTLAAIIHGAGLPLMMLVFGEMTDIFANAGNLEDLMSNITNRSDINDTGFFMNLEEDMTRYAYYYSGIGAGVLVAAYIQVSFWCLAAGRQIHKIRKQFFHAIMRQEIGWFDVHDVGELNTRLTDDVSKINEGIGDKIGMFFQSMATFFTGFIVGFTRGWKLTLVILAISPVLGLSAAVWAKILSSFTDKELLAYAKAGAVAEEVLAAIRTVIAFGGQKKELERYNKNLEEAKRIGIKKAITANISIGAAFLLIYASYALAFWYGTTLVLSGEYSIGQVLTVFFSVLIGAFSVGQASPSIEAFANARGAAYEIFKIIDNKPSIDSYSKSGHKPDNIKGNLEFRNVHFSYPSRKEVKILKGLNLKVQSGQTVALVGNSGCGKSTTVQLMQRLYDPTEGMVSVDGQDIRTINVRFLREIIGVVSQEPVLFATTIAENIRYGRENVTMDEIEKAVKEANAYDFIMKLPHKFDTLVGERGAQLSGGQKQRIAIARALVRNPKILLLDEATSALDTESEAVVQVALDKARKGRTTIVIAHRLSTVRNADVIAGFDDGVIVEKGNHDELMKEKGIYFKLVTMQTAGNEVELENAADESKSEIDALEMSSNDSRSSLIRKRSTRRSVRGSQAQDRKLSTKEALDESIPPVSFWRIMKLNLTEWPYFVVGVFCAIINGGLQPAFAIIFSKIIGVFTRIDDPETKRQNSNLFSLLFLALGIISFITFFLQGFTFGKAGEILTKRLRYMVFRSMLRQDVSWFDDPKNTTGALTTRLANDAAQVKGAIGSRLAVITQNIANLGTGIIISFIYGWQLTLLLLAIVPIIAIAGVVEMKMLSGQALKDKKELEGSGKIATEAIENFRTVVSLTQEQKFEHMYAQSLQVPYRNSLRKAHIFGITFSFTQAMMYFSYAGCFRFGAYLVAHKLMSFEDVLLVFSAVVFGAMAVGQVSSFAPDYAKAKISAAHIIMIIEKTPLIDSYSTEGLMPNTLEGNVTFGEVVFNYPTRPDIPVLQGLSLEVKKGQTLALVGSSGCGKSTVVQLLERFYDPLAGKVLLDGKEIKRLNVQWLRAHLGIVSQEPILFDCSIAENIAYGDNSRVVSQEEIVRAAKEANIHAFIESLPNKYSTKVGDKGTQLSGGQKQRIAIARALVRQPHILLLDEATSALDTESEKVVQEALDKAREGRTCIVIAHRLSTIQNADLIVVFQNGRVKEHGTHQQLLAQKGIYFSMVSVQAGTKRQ

[35] = Terminal half life in Sprague-Dawley rat at 3 mg/kg, iv by LC-MS/MS analysis; format: ADME, organism-based; parameters: dose 3 mg/kg, route intravenous; settings: in vivo, read-out: beta t1/2 (converted)
[36] = Volume of distribution at steady state in Sprague-Dawley rat at 3 mg/kg, iv by LC-MS/MS analysis; format: ADME, organism-based; parameters: dose 3 mg/kg, route intravenous; settings: in vivo, read-out: Vdss
[37] = AUC (infinity) in Sprague-Dawley rat at 3 mg/kg, po by LC-MS/MS analysis; format: ADME, organism-based; parameters: time infinity, dose 3 mg/kg, route oral; settings: plasma
[38] = Cmax in Sprague-Dawley rat at 3 mg/kg, po by LC-MS/MS analysis; format: ADME, organism-based; parameters: dose 3 mg/kg, route oral; settings: in vivo
[39] = Tmax in Sprague-Dawley rat at 3 mg/kg, po by LC-MS/MS analysis; format: ADME, organism-based; parameters: dose 3 mg/kg, route oral; settings: in vivo

With `O=C(c1ccc(F)c(F)c1Nc1ccc(I)cc1F)N1CC(O)([C@@H]2CCCCN2)C1` [COBIMETINIB] the bioavailability [1] was 69%, the clearance [2] was 5.53 mL/min/kg and the AUC (Canis familiaris) was 17100 ng·h/mL. It also gave a half-life [3] of 9.19 h, a Vd [4] of 3.99 L/kg and a Tmax [5] of 2.67 h. It also gave a bioavailability [6] of 69.1%, an AUC (Cynomolgus monkey) of 3340 ng·h/mL and a half-life [7] of 10.3 h. The Vd [8] was 29.6 L/kg, the AUC(0-inf) [9] was 640 ng·h/mL and the Cmax [10] was 50 ng/mL. It also gave a Tmax [11] of 2 h, a bioavailability [12] of 19.6% and a fraction unbound [13] of 0.0012. The fAUC (Brain [14]) was 3 nM·h, the Concentration (Brain [15]) was 0.1 nM and the “Cp(f)” value (Plasma) was 5.7 nM. The Kp uu at 2 h [16] was 0.018, the Kp at 2 h [17] was 0.5 and the concentration at 2 h [18] was 1560 nM. The Kp at 2 h [19] was 9, the TGI (COLO 205) was “Dose-dependent effect” and the IC50 [20] was 4.2 nM. For the same compound, the IC50 [21] was 8 nM, the AUC (Mus musculus) was 935 ng·h/mL and the half-life [22] was 3.92 h. The Vd [23] was 9.4 L/kg, the AUC(0-inf) [24] was 1510 ng·h/mL and the Cmax [25] was 184 ng/mL. It also gave a Tmax [26] of 0.25 h, a bioavailability [27] of 53.9% and a clearance [28] of 37.8 mL/min/kg. It also gave an AUC (Rattus norvegicus) of 2320 ng·h/mL, a Papp A→B at 1 h, 10 µM [29] of 1.39 ×10⁻⁶ cm/s and a Papp B→A at 1 h, 10 µM [30] of 4 ×10⁻⁶ cm/s. It also gave an efflux ratio at 1 h, 10 µM [31] of 3, a Papp B→A at 2 h, 25 µM (MDR1 [32]) of 35.4 ×10⁻⁶ cm/s and an efflux ratio at 2 h, 25 µM (MDR1 [33]) of 40. For the same compound, the “inhibition (INH)” value [34] was “Not Active”, the half-life [35] was 13.3 h and the Vd [36] was 34.6 L/kg. For the same compound, the AUC(0-inf) [37] was 1590 ng·h/mL, the Cmax [38] was 193 ng/mL and the Tmax [39] was 3.5 h.
